{
  "source": "patent US12128173B2",
  "about": "“Dry powder drug delivery system and methods” (MannKind Corporation, priority 2012, dated 2024)",
  "key": {"[1]": {"experiment": "VMGD and container emptying by laser diffraction, DPI 2 vs MEDTONE (Example 6)", "type": "physicochemical", "conditions": "SSA 55, 4 kPa", "quoted_text": "Typically, the geometric size of the emitted powder includes a volumetric distribution characterized by the median particle size, VMGD."}, "[2]": {"experiment": "Powder flowability: Hausner ratio, compressibility (Carr's) index, angle of repose, critical orifice", "type": "physicochemical", "from_the_text": "FDKP microparticles either unmodified or containing a drug, for example insulin, constitute highly cohesive powders."}, "[3]": {"experiment": "FDKP bioavailability versus intravenous bolus of radiolabeled FDKP", "conditions": "model analysis"}, "[4]": {"experiment": "In vitro powder emptying and VMGD, DPI 2 vs MTDS (Example 7)", "type": "physicochemical", "conditions": "4 kPa", "quoted_text": "In vitro powder performance for these systems was compared for various parameter of inhaler performance. For DPI 2 a single discharge per cartridge was used as compared to two discharges per cartridge in the MEDTONE® system.\nParticle sizing by laser diffraction and quantification of emitted mass as described above were used in these experiments. A laser diffraction instrument (Sympatec HELOS) was adapted with a novel pressurized inhaler chamber to facilitate analysis of powder plumes. MTDS cartridges were discharged twice per determination versus once with DPI 2."}, "[5]": {"experiment": "FDKP pharmacokinetics after inhalation, DPI 1 vs MEDTONE (Example 8)", "type": "in vivo, healthy volunteers", "from_the_text": "The MEDTONE® inhaler system was used for comparison. […] Powder used were crystalline powder formulations.\nDuring an inhalation maneuver, the patient was instructed to maintain a nominal pressure differential of 4-6 kPa combined with a short inhalation of 3-4 seconds or a long inhalation of 6-7 seconds. To generate a “hard” inhalation, the subject provided a nominal inhalation time of about 6.5 seconds and a peak pressure of 7 kPa. Conversely, to generate an “easy” inhalation, the subject provided a nominal inhalation time of about 6.5 seconds and a peak pressure of 5 kPa. Coupled with the inhalation monitoring apparatus, gravimetric assessment of the powder mass discharged from the cartridge was performed. This enabled a linkage between inhalation maneuver during dosing, cartridge discharge mass and pharmacokinetic profile determinations for each subject.\nThe study was an open-label, crossover, 2-part study in healthy volunteers.\nPart 2 was carried out as a 2-part, 2-way crossover study for evaluating the effect of flow rate (15 versus 30 LPM) and inhalation time (3 versus 6 seconds). For each parameter tested (i.e., flow rate, and inhalation time), ten subjects were crossed over for each parameter with 20 subjects total for all of the parameters. Pharmacokinetics of FDPK was assessed with each treatment from blood samples taken from the subjects."}, "Solubility of FDKP by pH": {"experiment": "Solubility of FDKP by pH", "type": "physicochemical"}, "[6]": {"experiment": "O-series vs U-series inhaler: discharge and particle size of crystalline and amorphous powders (Example 14)", "type": "physicochemical", "conditions": "fill 25 mg, 4 kPa; for X84 avg: in µm (unit assumed)", "procedure": "These experiments were conducted to test various inhaler designs in trying to improve percent dose discharge or increase device emptying to acceptable ranges for certain types of powders used. […] In these experiments, therefore, two types of dry powder inhalers were designed and built. An O-series (FIGS. 49 and 50) dry powder inhaler wherein the inhaler comprises rigid conduits which generate a tumbling, recirculating action of an airflow through the powder container during an inhalation in an O-shape prior to the airflow exiting the container. A second inhaler or U-series was also designed and built for comparison wherein the dry powder inhaler comprised a rigid air conduit through the container substantially U-shaped and configured with a deflector so that in use an airflow entering the container redirects the airflow within the container void or space in a U-shape/semilunar path or downwardly prior to exiting the container. Powders tested were either crystalline or amorphous.\nThe rigid flow conduits as illustrated in FIGS. 49 and 51 can be adapted to any type of dry powder inhaler for delivering different types of powder compositions. In these experiments, crystalline and amorphous powders were tested with the two types of air flow conduits designed into the same type of inhalers, a single use disposable. […] Inhaler performance was tested and evaluated from measurements using various parameters, such as pressure differential, powder content prior to and after testing of various powders via a simulated single inhalation. The particle size distribution of the discharged powder plume for each inhaler used was also measured as described in Example 7 above."}, "[7]": {"experiment": "Post prandial glucose excursions during meal challenges", "type": "in vivo, healthy volunteers", "conditions": "DPI 2 vs MEDTONE, doses not titrated"}},
  "data": [
    {"molecule": "O=C(O)/C=C/C(=O)NCCCCC1NC(=O)C(CCCCNC(=O)/C=C/C(=O)O)NC1=O", "note": "(stereo not drawn) [FDKP, 3,6-bis(N-fumaryl-4-aminobutyl)-2,5-diketopiperazine]", "values": [
      {"measurement": "VMGD", "setting": "[1]; DPI 2, 56% trans", "value": 6.800, "unit": "micron"},
      {"measurement": "VMGD", "setting": "[1]; MEDTONE, 56% trans", "value": 21.200, "unit": "micron"},
      {"measurement": "angle of repose", "setting": "[2]", "value": 40, "unit": "°"},
      {"measurement": "% of the FDKP delivered into the systemic circulation", "setting": "[3]; DPI 2, single inhalation, 6.7 mg total fill FDKP-insulin (FDKP about 6 mg)", "value": 64, "unit": "%"},
      {"measurement": "% of the FDKP delivered into the systemic circulation", "setting": "[3]; MEDTONE, two inhalations, FDKP-insulin formulation", "value": 46, "unit": "%"},
      {"measurement": "Ave. VMGD", "setting": "[4]; DPI 2, fill 10 mg, single discharge", "value": 6.84, "unit": "μm"},
      {"measurement": "Ave. VMGD", "setting": "[4]; MEDTONE (MTDS), fill 10 mg FDKP, two discharges", "value": 21.21, "unit": "μm"},
      {"measurement": "better delivery of FDKP into the systemic circulation than MEDTONE", "setting": "[5]; DPI 1 vs MEDTONE", "value": "about 30%"},
      {"measurement": "AVG mean AUC fdkp per emitted fdkp mass", "setting": "[5]; Part 1, DPI 1, 10 mg, nominal time and inhalation effort", "value": 3495, "unit": "ng*min/mL*mg fdkp"},
      {"measurement": "AVG mean AUC fdkp per emitted fdkp mass", "setting": "[5]; Part 1, MT (MEDTONE), 10 mg, nominal time and inhalation effort", "value": 1934, "unit": "ng*min/mL*mg fdkp"},
      {"measurement": "AVG mean AUC fdkp per emitted fdkp mass", "setting": "[5]; Part 2, DPI 1, 10 mg, long inhalation time", "value": 3289, "unit": "ng*min/mL*mg fdkp"},
      {"measurement": "AVG mean AUC fdkp per emitted fdkp mass", "setting": "[5]; Part 2, DPI 1, 10 mg, short inhalation time", "value": 3310, "unit": "ng*min/mL*mg fdkp"},
      {"measurement": "solubility", "setting": "Solubility of FDKP by pH; at neutral or basic pH", "value": "readily soluble"},
      {"measurement": "solubility", "setting": "Solubility of FDKP by pH; in acid", "value": "low solubility"},
      {"measurement": "X16 avg", "setting": "[6]; Sample 1, O-series", "value": 1.9, "unit": "µm"},
      {"measurement": "X50 avg", "setting": "[6]; Sample 1, O-series", "value": 6.86, "unit": "μm"},
      {"measurement": "X84 avg", "setting": "[6]; Sample 1, O-series", "value": 21.55},
      {"measurement": "X16 avg", "setting": "[6]; Sample 2, U-series", "value": 2.76, "unit": "µm"},
      {"measurement": "X50 avg", "setting": "[6]; Sample 2, U-series", "value": 11.19, "unit": "μm"},
      {"measurement": "X84 avg", "setting": "[6]; Sample 2, U-series", "value": 36.51}
    ]},
    {"molecule": "insulin", "values": [
      {"measurement": "post prandial glucose excursions", "setting": "[7]", "value": "generally comparable glucose excursions"}
    ]}
  ]
}
